The values that follow come from US20030130121A1, “Novel bacterial isolate and the preparation and use of its active metabolites” (priority 1999, published 2003).

The structures appear in SMILES notation. Converted amounts (≈) assume the structure as drawn. “Also recorded” adds a separate entry of the source. Like-named read-outs stand apart in the source and are kept apart here.

The test system of assay [1] is S. sclerotiorum ascospores. Description: Suppression of spore germination - microtiter plate assay 1. The assay is classed as cell-based, Sclerotinia sclerotiorum. Conditions: for inhibition of ascospore germination: S. sclerotiorum, qualitative; for MIC: Sclerotinia sclerotiorum, read-out: Minimal Inhibitory Concentration (MIC) to totally inhibit spore germination. Here is the method: (§1) To obtain the A. fumigatus conidiospores, the fungus was grown on ME slants for about 2 weeks at 28° C. The F. culmorum and F. oxysporum conidia, the H. annosum basidiospores, the M. canis macroconidia were produced by inoculating fungal plugs on Corn Meal Agar plates (CMA, Difco Ltd.), Hagem Agar plates (5 g glucose, 5 g ME, 0.5 g NH4NO3, 0.5 g KH2PO4, 0.5 g MgSO4×7H2O, 20 g Agar in 1000 ml deionized H2O) and Oat Meal Agar plates (60 g oat meal, 12.5 g Agar in 1000 ml deionized H2O), respectively, for a period of 5 to 10 days at 25° C. Ascospores of S. sclerotiorum were collected during their dispersal from apothecia by entrapping them on the surface of a water agar (12 g Bacto Agar (Difco Ltd)), 1000 ml H2O). Mature spores were then scraped off or washed out from the surface of the agar plates, with 0,5% Bacto Peptone (Difco Ltd) supplemented with 0.01% Tween 80. The P. ultimum sporangia were obtained by. growing the fungus on grass blades (Martin, 1992). The C. albicans stock culture of 1.0×10^6 cfu ml^−1 was prepared from a 24-hours old culture grown on Yeast Malt Agar plates (YM Agar, Difco Ltd) at 37° C. by suspending it in 0.5% Bacto Peptone and adjusting the optical density of this culture to an absorbance of 0.5 at 600 nm. The spore concentration was counted by using a Bürker chamber, and stock spore suspensions were stored at −70 ° C. for further use. The spore concentrations in respective stock suspensions, as well as the spore concentrations and media to culture fungi in a microtiter plate assay, are listed in Table 2 below.
(§2) To follow the activity during purification, HPLC-fractions to be tested were directly collected to 96-well microtiter plates by using a fraction collector (FC 204, Gilson), and mainly the activity to inhibit the germination of F. culmorum conidia and S. sclerotiorum ascospores was tested. […] The solvents were always evaporated, and one hundred μl of spore suspension, suspended in the appropriate media as listed in Table 2, were then distributed into each well. Depending on the fungus tested, the spore germination was monitored after 24 to 96 hours of incubation at 25° C. in darkness except for A. fumigatus and C. albicans which were incubated at 28 ° C. and 37 ° C. Controls were spores suspended in respective culturing media and culturing media only. All tests were done in triplicate and repeated at least twice.
(§3) The activity of haterumalide A, B and E, and of pyrrolnitrin to inhibit the spore germination of A. fumigatus, F. culmorum, F. oxysporum, H. annosum, M. canis, P. ultimum and S. sclerotiorum as well as the inhibition of the C. albicans growth was tested by using the microtiter plate assay 1 described in Example 7. The effect on apothecial formation of S. sclerotiorum sclerotia was assayed by using microtiter plate assay 2 described in Example 7.

The test system of assay [2] is S. sclerotiorum sclerotia. Description: Suppression of apothecial formation - microtiter plate assay 2. The assay is classed as cell-based, Sclerotinia sclerotiorum. As to conditions: for inhibition of apothecial formation of sclerotia: S. sclerotiorum, qualitative; for MIC: Sclerotinia sclerotiorum. On the procedure: Twenty four-well microtiter plates were used to test the effect of the purified metabolites on apothecial formation in a concentration range between 0.01 μg ml^−1 and 100 μg ml^−1. To obtain respective concentrations of tested metabolites, the appropriate volume out of the respective metabolite stock solutions of 100 μg ml^−1, 10 μg ml^−1 and 1 μg ml^−1, dissolved in acetonitrile, was distributed into the wells and the solvent was then evaporated. Thereupon, the metabolites were dissolved in sterile H2O and one, or in some tests two, preconditioned sclerotia were placed into each well. Tests were done in triplicate and controls were sclerotia placed in sterile water only.
as §3

The test system of assay [3] is S. sclerotiorum mycelium. Description: Suppression of S. sclerotiorum mycelial growth, susceptibility test discs on PDA. The assay is classed as cell-based, Sclerotinia sclerotiorum. As to conditions: S. sclerotiorum; qualitative. On the procedure:
For testing effects of haterumalide A, halves of surface sterilized and bisected sclerotia were placed in the center PDA plates (9 cm in diameter) to initiate mycelial growth of S. sclerotiorum. The metabolite, at a concentration from 0.05 to 5 μg ml^−1 diluted in MeOH/H2O (1:1), was then spotted directly onto sterile antimicrobial susceptibility test discs (Oxoid Ltd) located at four equidistant places, giving a total of 0.2 to 20 μg ml^−1 compound per one Petri plate. The treatments were performed in triplicate. Zones of inhibition of mycelial growth were measured after 4 days and reduction of mycelial growth was calculated as a percentage of MeOH/H2O controls.

Assay [4] concerns A. fumigatus conidiospores. Description: Suppression of spore germination - microtiter plate assay 1. The assay is classed as cell-based. Conditions: Aspergillus fumigatus, read-out: Minimal Inhibitory Concentration (MIC) to totally inhibit spore germination. On the procedure:
as §1, §2, §3

Assay [5] deals with F. culmorum conidia. The description is as above. It is filed as cell-based. Conditions: Fusarium culmorum, read-out: Minimal Inhibitory Concentration (MIC) to totally inhibit spore germination. Here is the method: as §1, §2, §3
In assay [6] the test system is F. oxysporum conidia. Described as above. The assay is classed as cell-based. Conditions: Fusarium oxysporum, read-out: Minimal Inhibitory Concentration (MIC) to totally inhibit spore germination. Here is the method:
as §1, §2, §3

Assay [7] relates to H. annosum basidiospores. Described as above. The assay is classed as cell-based. As to conditions: Heterobasidion annosum, read-out: Minimal Inhibitory Concentration (MIC) to totally inhibit spore germination. On the procedure: as §1, §2, §3
Assay [8] relates to P. ultimum sporangia. The description is as above. It is filed as cell-based. Conditions: Globisporangium ultimum, read-out: Minimal Inhibitory Concentration (MIC) to totally inhibit spore germination. Here is the method:
as §1, §2, §3

The test system of assay [9] is M. canis macroconidia. The assay is described as above. It is filed as cell-based, Microsporum canis var. canis. Conditions: Microsporum canis, read-out: Minimal Inhibitory Concentration (MIC) to totally inhibit spore germination. Here is the method:
as §1, §2
The activity of haterumalide A, B and E, and of pyrrolnitrin to inhibit the spore germination of A. fumigatus, F. culmorum, F. oxysporum, H. annosum, M. canis, P. ultimum and S. sclerotiorum as well as the inhibition of the C. albicans growth was tested by using the microtiter plate assay 1 described in Example 7. […]

In assay [10] the test system is Stellaria media. Description: Foliar spraying of Stellaria media with A 153 culture preparations and haterumalide B. The assay is classed as in vivo. As to conditions: Stellaria media 6-8 leaf stage; 4 ml/4 plants/pot; no concentration factor printed.
Assay [11] deals with Lemna minor. Description: Differentiation and growth of Lemna minor, 24-well microtiter plates. It is filed as in vivo. As to conditions: for Number of Lemna minor fronts (leaves) per one microtiter plate well, End of test: 10 fronts at beginning, control 36. Here is the method:
Twenty four-well microtiter plates were used to test the effect of the purified haterumalide B on differentiation and growth of Lemna minor in a concentration range between 1 μg ml^−1 and 60 μg ml^−1. To obtain respective concentrations of the tested metabolite, the appropriate volume out of the respective metabolite stock solutions of 100 μg ml^−1 and 10 μg ml^−1, dissolved in acetonitrile, was distributed into the wells, and the solvent was then evaporated. Thereupon, the metabolite was dissolved in a sterile Lemna medium and three Lemna minor plants with 10 fronts were placed into each well. Tests were done in duplicate and controls were Lemna minor plants placed in only Lemna medium.

For assay [12], the system named is green algae (Scenedesmus quadricauda). Description: Growth of green algae in Z8 medium. It is filed as cell-based. Conditions: concentrations similar to those used for the Lemna minor test; preliminary. Here is the method: Additionally, the similar method was used to preliminary test the effect of haterumalide B on the growth of green algae (Scenedesmus quadricauda). Evaporated haterumalide B was dissolved in a sterile Z8 medium with the suspension of algae. Tests were performed in duplicate with suspensions of Scenedesmus quadricauda placed in only sterile Z8 medium as controls.

[13] abbreviates: read-out: Minimal Inhibitory Concentration (MIC) to totally inhibit apothecial formation of sclerotia, S. sclerotiorum sclerotia.

On to `CC(=O)O[C@H]1CC(=O)OC2CC(CC/C(Cl)=C/C/C=C\1C)O[C@H]2[C@H]1C=C(C)CC(=O)O1` (stereo partly shown) [Haterumalide X], for which the “inhibition of ascospore germination” value in assay [1] is “ability to inhibit”. Moreover, the “inhibition of apothecial formation of sclerotia” value (“inhibition … of sclerotia” for short) in [2] is given as “ability to inhibit”. Besides, the “inhibition of mycelial growth” value in assay [3] is listed as “ability to inhibit”.
For the compound `O=[N+]([O-])c1c(Cl)cccc1-c1c[nH]cc1Cl` [Pyrrolnitrin, pyrrolnitrin, reference compound], the MIC is 3 µg/mL (≈ 11.7 µM) in [4] (A. fumigatus); 0.06 µg/mL (≈ 0.233 µM) in [5]; 20 µg/mL (≈ 77.8 µM) in [6] (F. oxysporum); 50 µg/mL (≈ 194 µM) in [7] (H. annosum); less than 50 µg/mL in assay [8] (P. ultimum); 1 µg/mL (≈ 3.89 µM) in assay [9] (M. canis). For the same compound, the MIC in [1] (S. sclerotiorum ascospores) is 10 µg/mL (≈ 38.9 µM); in [2] (S. sclerotiorum sclerotia, read-out: Minimal Inhibitory Concentration (MIC) to totally inhibit apothecial formation of sclerotia) it was less than 100 µg/mL.
Consider `C=C(COC(=O)C/C(C)=C/[C@@H](O)[C@@H]1OC2CC/C(Cl)=C/C/C=C(/C)[C@@H](OC(C)=O)CC(=O)OC1C2)C(C)=O` (stereo partly shown) [Haterumalide B], for which the MIC worked out at 13 µg/mL (≈ 23.5 µM) in assay [4]; 1 µg/mL (≈ 1.81 µM) in [5]; 0.8 µg/mL (≈ 1.45 µM) in assay [6]; 20 µg/mL (≈ 36.2 µM) in assay [7]; 1 µg/mL (≈ 1.81 µM) in assay [8]; 40 µg/mL (≈ 72.3 µM) in [9]. Moreover, the MIC in assay [1] was 3 µg/mL (≈ 5.42 µM); in assay [2] (setting [13]), 0.5 µg/mL (≈ 0.904 µM). The “inhibition of ascospore germination” value in [1] is on record as “ability to inhibit”. The “inhibition … of sclerotia” value in [2] is given as “ability to inhibit”. The “inhibition of mycelial growth” value in assay [3] was “ability to inhibit”. For the same compound, the “Plants Surviving” value in assay [10] stood at 0.0. Also, the “Shot Fresh Weight” value in assay [10] is 0.1 g. Also, the “Number of Lemna minor fronts (leaves) per one microtiter plate well, End of test” value in assay [11] (1 μg ml-1), in assay [11] (5 μg ml-1), in [11] (10 μg ml-1), in assay [11] (30 μg ml-1) and in assay [11] (60 μg ml-1) was 10 each time. For the same compound, in [11] (at all tested concentrations (1 to 60 μg ml-1)), the “Visible effects on Lemna fronts” value was “fronts impaired and totally; also recorded: chlorotic”. The “differentiation and growth of Lemna minor” value in [11] (at all tested concentrations (1 to 60 μg ml^−1)) is given as “totally inhibited”. Further, in assay [12], the “growth of green algae” value was “inhibits the growth”.
On to `C/C1=C/C/C=C(\Cl)CCC2CC(OC(=O)C[C@@H]1O)[C@H]([C@H](O)/C=C(\C)CC(=O)O)O2` (stereo partly shown) [Haterumalide E], for which the MIC in assay [4] was 15 µg/mL (≈ 35 µM); in assay [5] it was 5 µg/mL (≈ 11.7 µM); in assay [6] it was 25 µg/mL (≈ 58.3 µM); in [7] it was less than 50 µg/mL; in [8], 8 µg/mL (≈ 18.7 µM); in assay [9], less than 75 µg/mL. Moreover, the figures for the MIC in assay [1] and in assay [2] (setting [13]) were 3 µg/mL (≈ 6.99 µM) and 0.5 µg/mL (≈ 1.17 µM), respectively. In addition, the “inhibition of ascospore germination” value in [1] is reported as “ability to inhibit”. The “inhibition … of sclerotia” value in assay [2] was “ability to inhibit”. The “inhibition of mycelial growth” value in [3] is reported as “ability to inhibit”.
